According to patent US20160339026A1, “TOPICAL COMPOSITIONS COMPRISING MODULATORS OF TRPM8” (Senomyx, Inc., priority 2015, published 2016):
Like-named read-outs stand apart in the source and are kept apart here.

Tests used:
hTRPM8 [1] = molecular target: T1, hTRPM8 (Homo sapiens, UniProt Q7Z2W7); assay: Cell line stably expressing hTRPM8, agonist assay, compounds of Formula (I); type: cell-based; conditions: Table 1.7
T1 construct: expressed in transfected cells
From the text: A mammalian cell line derivative which stably expresses hTRPM8 was used in biological assays in association with testing the present compounds with cool-tasting or -feeling properties (Servant et al. US 2007/0259354 A1 and references cited therein). […] The present compounds have shown strong activity as agonists of hTRPM8. Assay results for compounds are illustrated in Table 1.1 below. Specifically, the Examples listed in Table 1.1, i.e., Compounds A1 to Compounds U10 are the specific compounds above that fall within Formula (I).

hTRPM8 [2] = molecular target: T1, hTRPM8; conditions: Table 1.8; according to WO2011/061330 A2 E Table C 3-14; cited from earlier work
[3] = Sensory study of topically applied Compound 101; type: in vivo, human
Procedure: The response of subjects to topically applied Compound 101 was assessed. Subjects were exposed to a solid formulation of Compound 101 in small quantities. […] In another assessment, subjects were exposed to a dilute airborne microparticulate Compound 101.

T1 sequence (Q7Z2W7 whole entry): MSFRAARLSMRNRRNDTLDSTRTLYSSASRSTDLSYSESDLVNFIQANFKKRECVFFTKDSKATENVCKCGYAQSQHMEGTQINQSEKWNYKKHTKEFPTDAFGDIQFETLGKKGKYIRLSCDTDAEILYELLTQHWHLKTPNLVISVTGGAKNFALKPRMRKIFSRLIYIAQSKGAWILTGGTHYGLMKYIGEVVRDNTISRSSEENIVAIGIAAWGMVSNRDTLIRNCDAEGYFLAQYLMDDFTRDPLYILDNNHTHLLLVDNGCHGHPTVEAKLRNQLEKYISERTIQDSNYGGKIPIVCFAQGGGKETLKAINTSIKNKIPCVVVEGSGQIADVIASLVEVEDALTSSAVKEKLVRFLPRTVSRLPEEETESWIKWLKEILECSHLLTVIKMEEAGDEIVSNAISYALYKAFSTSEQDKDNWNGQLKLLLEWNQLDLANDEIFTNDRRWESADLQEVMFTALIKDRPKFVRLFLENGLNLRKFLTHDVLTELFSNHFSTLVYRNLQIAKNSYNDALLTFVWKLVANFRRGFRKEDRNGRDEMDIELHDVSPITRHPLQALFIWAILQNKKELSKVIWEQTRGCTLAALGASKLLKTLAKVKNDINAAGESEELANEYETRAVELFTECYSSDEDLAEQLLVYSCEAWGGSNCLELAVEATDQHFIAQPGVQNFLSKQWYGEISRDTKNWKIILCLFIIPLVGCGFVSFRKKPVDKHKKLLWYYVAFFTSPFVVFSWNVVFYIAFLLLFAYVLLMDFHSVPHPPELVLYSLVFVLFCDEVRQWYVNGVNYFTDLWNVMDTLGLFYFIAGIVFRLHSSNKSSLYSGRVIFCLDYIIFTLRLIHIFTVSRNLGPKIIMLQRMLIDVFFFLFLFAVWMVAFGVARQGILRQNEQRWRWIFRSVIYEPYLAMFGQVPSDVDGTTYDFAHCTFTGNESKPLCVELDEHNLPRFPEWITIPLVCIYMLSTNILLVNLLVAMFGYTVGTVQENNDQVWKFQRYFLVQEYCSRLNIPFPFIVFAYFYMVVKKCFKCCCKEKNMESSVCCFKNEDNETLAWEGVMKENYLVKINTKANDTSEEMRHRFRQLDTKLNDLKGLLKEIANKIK

EC50 (hTRPM8 [1]) [µM] | EC50 Ratio (WS-3) (hTRPM8 [1]) | SMILES | other results
15.6 | 0.2 | O=C(COc1ccc(Br)cc1)N(Cc1ccccc1)c1ccccn1 [drawing 56 R=4-Br R1=2-Pyridyl Ar=Phenyl] | –
> 100 | – | Cc1ccc(OCC(=O)N(C)Cc2ccccc2)cc1 [drawing 56 R=4-Me R1=Methyl Ar=Phenyl] | –
4.72 | 0.6 | Cc1ccc(OCC(=O)N(Cc2ccccc2)c2ccccn2)cc1 [drawing 56 R=4-Me R1=2-Pyridyl Ar=Phenyl] | –

The next lines start with the molecule.

SMILES | EC50 (hTRPM8 [1]) [µM] | EC50 Ratio (WS-3) (hTRPM8 [1]) | other results
CCN(Cc1ccccc1)C(=O)COc1ccccc1 [drawing 56 R=H R1=Ethyl Ar=Phenyl] | 9.21 | 0.5 | –
CCN(Cc1ccccc1)C(=O)C=Cc1ccc2c(c1)OCO2 | – | – | EC50 (hTRPM8 [2]): 1500 nM
CCN(Cc1ccccc1)C(=O)COc1ccc(C)cc1 [drawing 56 R=4-Me R1=Ethyl Ar=Phenyl] | 0.776 | 4.2 | –
Cc1ccc(OCC(=O)N(Cc2cccs2)c2ccn[nH]2)cc1 [Compound 101] | – | – | Sensation reported by subjects ([3]; exposure to a solid formulation in small quantities): all subjects reported a “tingling” and “cooling” sensation; Sensation reported by subjects ([3]; exposure to dilute airborne microparticulate compound): exhibited a “cooling smell” and induced “tingling sensation” on the skin
